Data as given in the supplement of paper PMC10307832.

What was measured:
Experiment in all cases: relative viability (nuclei count vs DMSO), 5 days (fraction); higher = more cells survive
GSK-J4 + Linsitinib = compound: CCOC(=O)CCNc1cc(N2CCc3ccccc3CC2)nc(-c2ccccn2)n1 [GSK-J4] + C[C@]1(O)C[C@@H](c2nc(-c3ccc4ccc(-c5ccccc5)nc4c3)c3c(N)nccn32)C1 [Linsitinib] (partner 1 µM)
How it was run: (§1)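 Relative viability is defined as nuclei in treated wells over nuclei in vehicle wells. Duplicate plates were run and medians reported. Lung cancer cell lines in 1536-well plates were dosed by pin tool one day after seeding, with one drug or with a fixed anchor-drug dose plus five library-drug doses (not always all listed) in √10 steps, and nuclei were counted after 5 days.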

GSK-J4 + OSI-027 = compound: CCOC(=O)CCNc1cc(N2CCc3ccccc3CC2)nc(-c2ccccn2)n1 [GSK-J4] + COc1cccc2cc(-c3nc([C@H]4CC[C@H](C(=O)O)CC4)n4ncnc(N)c34)[nH]c12 [OSI-027] (partner 0.5 µM)
How it was run: as §1

GSK-J4 + Phenformin = compound: CCOC(=O)CCNc1cc(N2CCc3ccccc3CC2)nc(-c2ccccn2)n1 [GSK-J4] + N=C(N)NC(=N)NCCc1ccccc1 [Phenformin] (partner 250 µM)
How it was run: as §1

AZ3146 + Luminespib = compound: CN1CCC(CC1)OC2=CC(=C(C=C2)NC3=NC=C4C(=N3)N(C(=O)N4C)C5CCCC5)OC [AZ3146] + CCNC(=O)c1noc(-c2cc(C(C)C)c(O)cc2O)c1-c1ccc(CN2CCOCC2)cc1 [Luminespib] (partner 0.01 µM)
How it was run: as §1

Cell Line | relative viability (GSK-J4 + Linsitinib; first compound 0.5 µM) | relative viability (GSK-J4 + Linsitinib; first compound 1.581 µM) | relative viability (GSK-J4 + Linsitinib; first compound 5 µM) | relative viability (GSK-J4 + Linsitinib; first compound 15.81 µM) | relative viability (GSK-J4 + Linsitinib; first compound 50 µM) | relative viability (GSK-J4 + OSI-027; first compound 0.5 µM) | relative viability (GSK-J4 + OSI-027; first compound 1.581 µM) | relative viability (GSK-J4 + OSI-027; first compound 5 µM) | relative viability (GSK-J4 + OSI-027; first compound 15.81 µM) | relative viability (GSK-J4 + OSI-027; first compound 50 µM) | relative viability (GSK-J4 + Phenformin; first compound 0.5 µM) | relative viability (GSK-J4 + Phenformin; first compound 1.581 µM) | relative viability (GSK-J4 + Phenformin; first compound 5 µM) | relative viability (GSK-J4 + Phenformin; first compound 15.81 µM) | relative viability (GSK-J4 + Phenformin; first compound 50 µM) | relative viability (AZ3146 + Luminespib; first compound 0.08 µM) | relative viability (AZ3146 + Luminespib; first compound 0.253 µM) | relative viability (AZ3146 + Luminespib; first compound 0.8 µM) | relative viability (AZ3146 + Luminespib; first compound 2.53 µM) | relative viability (AZ3146 + Luminespib; first compound 8 µM)
NCI-H1299 | 0.979 | 0.881 | 0.813 | 0.962 | 0.988 |  |  |  |  |  |  |  |  |  |  |  |  |  |  | 
NCI-H1563 | 1.15 | 1.2 | 1.22 | 1.18 | 1.24 | 0.796 | 0.766 | 0.659 | 0.659 | 0.748 | 0.665 | 0.71 | 0.607 | 0.56 | 0.656 | 0.465 | 0.525 | 0.477 | 0.51 | 0.511
HOP-62 | 0.952 | 0.78 | 0.83 | 0.835 | 0.855 | 0.69 | 0.692 | 0.722 | 0.858 | 0.497 | 0.612 | 0.548 | 0.558 | 0.665 | 0.528 | 0.943 | 0.865 | 0.87 | 0.959 | 0.992
NCI-H1651 | 0.959 | 0.878 | 1.05 | 0.9 | 0.939 | 0.79 | 0.734 | 0.687 | 0.706 | 0.721 | 0.294 | 0.308 | 0.348 | 0.384 | 0.392 | 0.966 | 0.881 | 0.984 | 0.761 | 0.779
HCC-366 | 0.622 | 0.547 |  | 0.478 | 0.437 | 1.01 | 0.889 |  | 0.524 | 0.785 | 0.574 | 0.579 |  | 0.482 | 0.59 |  |  |  |  | 
EMC-BAC-2 | 0.781 | 0.728 | 0.83 | 0.715 | 0.794 | 0.347 | 0.386 | 0.249 | 0.315 | 0.311 | 0.502 | 0.471 | 0.267 | 0.51 | 0.34 | 1.13 | 1.16 | 1.17 | 1.31 | 1.22
NCI-H2228 | 0.483 | 0.721 | 0.748 | 0.746 | 1.04 | 0.593 | 0.544 | 0.616 | 0.415 | 0.459 | 0.331 | 0.205 | 0.42 | 0.244 | 0.355 | 0.133 | 0.149 | 0.162 | 0.145 | 0.146
LK-2 | 0.69 | 0.449 | 0.774 | 0.537 | 0.602 | 0.268 | 0.193 | 0.204 | 0.152 | 0.19 | 0.707 |  | 0.416 | 0.23 | 0.253 | 0.22 | 0.194 | 0.257 | 0.151 | 0.203
NCI-H1650 |  |  |  |  |  | 0.732 | 0.365 | 0.673 | 0.606 | 0.553 | 0.512 | 0.415 | 0.375 | 0.4 | 0.408 | 0.214 | 0.201 | 0.185 | 0.189 | 0.186
Calu-6 | 0.868 | 0.924 | 0.719 | 0.927 | 0.869 |  |  |  |  |  |  |  |  |  |  |  |  |  |  | 
